What was measured:
[1] = tested on: mice with LPS-induced ALI; assay: LPS-induced acute lung injury mouse model with hypoxic challenge: inflammation, SpO2, survival; assay type: in vivo; conditions: for survival: after 4 hours of exposure to 5% O2 hypoxia; for increase of SpO2, of control value: 5% O2 hypoxia
Method: Adult, 8-10-week-old male C57BL/6J mice (Jackson Laboratory, Bar Harbor, Me.), were anesthetized with isoflurane, injected with 100 μg LPS (Sigma, St. Louis, Mo.) in 100 μL PBS by direct intratracheal injection. After 24 hours, mice were given Compound 1 (70 or 140 mg/kg formulated in dimethylacetamide, polyethylene glycol 400 (PEG400) and 40% cavitron in a ratio of 1:5:4, respectively) or vehicle only (5 μL/g) by oral gavage 2 hours prior to placement in a hypoxia chamber. Mice were exposed to either 10 or 5% O2 for 4 hours. Oxygen saturation (SaO2) was measured with a pulse oximeter (STARR Life Sciences, Oakmont, Pa.) at baseline and hourly during hypoxic exposure. During hypoxic exposure, mice were monitored continuously and a moribund check was done every 15 minutes. Time to death was assessed by time to moribund status. Mice were determined to be moribund if they could not right themselves when placed in a supine position.
Blood was collected by cardiac puncture in the hypoxic chamber. Blood gases were measured using the i-STAT portable analyzer within the hypoxic environment (Abaxis, Union City, Calif.). Remaining blood samples were used for hemoximetry and pharmacokinetic analysis. For sample collection, mice were euthanized with pentobarbital overdose. A bronchoaleveolar lavage (BAL) was performed with 900 uL Saline. Blood was collected by retro orbital puncture, and then spun to collect plasma. Lungs were removed and flash frozen. All samples were stored at −80° C. until further study. BAL inflammatory cell counts and differentials were determined manually after staining cytospins with DiffQuik. BAL protein was measured using a Pierce BCA Protein Assay Kit (Thermo Scientific, Waltham, Mass.).
Using a MouseOx, peripheral arterial O2 saturation (SpO2) was measured during hypoxia. SpO2 was measured for each group every hour during hypoxia. In general, SpO2 decreased during hypoxia for all groups. […] For example, during 5% O2 hypoxia, Compound 1 at 70 mg/kg or 140 mg/kg increased SpO2 by 22% or 31% of control value, respectively.
During exposure hypoxia, mice were monitored continuously and a moribund check was done every 15 minutes. Time to death was assessed by time to moribund status. Mice were determined to be moribund if they could not right themselves when placed in a supine position.

Hb = biological target: T1, Hb (Mus musculus, UniProt P01942); assay: Bleomycin mouse model: PK/PD (blood and plasma concentrations, Hb occupancy, hemoximetry); assay type: in vivo; conditions: bleomycin treated mice; for calculated Hb occupancy: 4 hours after last dose
T1 construct: from tissue; host or cells: whole blood (red blood cells) of dosed C57BL / C57BL/6J mice
T1 sequence (P01942 2-142 limits assumed): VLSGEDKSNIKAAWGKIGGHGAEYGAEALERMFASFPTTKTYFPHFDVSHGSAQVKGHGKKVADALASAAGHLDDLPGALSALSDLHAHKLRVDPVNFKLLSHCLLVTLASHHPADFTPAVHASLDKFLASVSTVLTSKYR
T1 sequence (P02088 2-147 partner limits assumed): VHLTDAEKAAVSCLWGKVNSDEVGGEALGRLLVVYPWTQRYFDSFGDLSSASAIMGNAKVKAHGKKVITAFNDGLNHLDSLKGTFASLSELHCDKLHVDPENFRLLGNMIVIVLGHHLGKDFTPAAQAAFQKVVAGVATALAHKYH
Method: Compound 1 (formulated in dimethylacetamide: polyethylene glycol 400 (PEG400): 40% cavitron at a 1:5:4 ratio) was administered at either low dose (first day 50 mg/kg followed by 40 mg/kg daily) or high dose (first day 150 mg/kg followed by 85 mg/kg daily) via oral gavage to bleomycin treated mice once daily from day 8 to day 15. Animals in group 1 were administered vehicle via oral gavage. The dosing volume was 200 μL. The study animals were sacrificed on day 15 at 4 hours post final dose.
Samples for hemoximetry and pharmacokinetics (PK) were taken 4 hours following the last dose of the dosing regimen. BAL fluid was collected from the lungs of the animals by lavaging the lung with 1 ml Hanks balanced salt media (HBSS). Lungs were harvested from each animal and weighed. They were then inflated by ˜0.5 mL of 10% NBF and fixed in a formalin container for subsequent histopathological analysis.
Compound 1 blood and plasma concentrations were determined by LC-MS 4 hours after the last dose. Both standard and QC blood samples were pre-incubated at 37° C. for 1 hr. After incubation, all standard and QC samples were diluted with 2-fold volume of water to match with the condition of samples. Plasma standard and QC were proceeding without pre-incubation. […] The peak area of m/z 341->203 product ion (Compound 1) was measured against that of the m/z 345->159 product ion 2-hydroxy-6-((2-(1-(propan-2-yl-d7)-1H-pyrazol-5-yl)pyridin-3-yl)methoxy)benzaldehyde in positive ion mode. […]
Hemoglobin occupancy by Compound 1 was calculated by dividing the concentration of Compound 1 in RBCs by the Hb concentration in RBCs (5 mM). RBC was calculated from whole blood and plasma concentration data using the following equation: […]
Hemoximetry measurements (PD analysis) were conducted in a Hemox Analyzer (TCS Scientific Corporation, New Hope, Pa.). […] The absorbance at wavelengths that correspond to the isosbestic point (570 nm) and deoxy Hb (560 nm) was recorded as a function of the sample O2 tension (pO2). […]

activated neutrophils = assay: Oxidative burst in activated neutrophils; assay type: cell-based; conditions: in vitro
Excerpt: (§1) Reactive oxygen species (ROS) released from activated white blood cells cause lung injury as well as fibrotic changes in patients with IPF. […] Thus, the compounds described herein could also provide a method to inhibit the adverse effects of inflammation in a patient. Reduction in systemic pro-inflammatory cytokines (tumor necrosis alpha and interleukin-6) also has the potential to exert a broad anti-inflammatory effect which would supplement the beneficial effect of alleviation of hypoxemia via increased hemoglobin-O2 affinity.

macrophages = assay: Production of TNF-α and IL-6 by macrophages; assay type: cell-based; conditions: in vitro
Excerpt: as §1

O=Cc1c(O)cccc1OC[C@@H]1CCCCN1C(=O)c1cccnc1 [Compound 1, (S)-2-hydroxy-6-((1-nicotinoylpiperidin-2-yl)methoxy)benzaldehyde]
inflammation or lung injury (BALF total cells, neutrophils, macrophages, total protein) ([1]; 100 μg LPS intratracheal): no significant effect on inflammation or lung injury
survival ([1]; 70 mg/kg): 60%
survival ([1]; 140 mg/kg): 86%
increase of SpO2, of control value ([1]; 70 mg/kg): 22%
increase of SpO2, of control value ([1]; 140 mg/kg): 31%
SpO2 compared to control ([1]; during 10% and 5% O2 hypoxia, average over 4 hours): higher in Compound 1 dosed mice compared to control
calculated Hb occupancy (Hb; high dose regimen (150 then 85 mg/kg daily)): 36.7%
shift in the OEC (Hb-oxygen binding affinity) (Hb; low and high dose): significant left shift in the OEC in a dose-response manner
calculated Hb occupancy (Hb; low dose regimen (50 then 40 mg/kg daily)): 18.0%
anti-oxidative activity (oxidative burst) (activated neutrophils): displayed anti-oxidative
anti-inflammatory activity (TNF-α and IL-6 production) (macrophages): anti-inflammatory activity

Reference: US10695330B2, “Methods of treatment” (Global Blood Therapeutics, Inc., priority 2015, dated 2020)
